From ChEMBL document CHEMBL6096649, “Enantiomeric C-6 fluorinated swainsonine derivatives as highly selective and potent inhibitors of α-mannosidase and α-l-rhamnosidase: Design, synthesis and structure-activity relationship study” (Eur J Med Chem, 2025)

Tests used:
786-0 = assay: Cytotoxicity activity against human 786-0 cells incubated for 48 hrs by CCK-8 assay; format: functional, cell-based; details: 786-0, 48 h
Aspergillus niger = assay: Inhibition of Aspergillus niger amyloglucosidase using p-nitrophenyl glycoside as substrate assessed as release of p-nitrophenol at 1000 uM by spectrometric analysis relative to control
[1] = molecular target: Alpha-glucosidase (Saccharomyces cerevisiae S288c) (UniProt P53341+P38158+P07265); assay: Inhibition of yeast Alpha-glucosidase using p-nitrophenyl glycoside as substrate assessed as p-nitrophenol release at 1000 uM by spectrometric analysis relative to control; format: protein assay
[2] = molecular target: T1, Alpha-mannosidase (Canavalia ensiformis) (UniProt C0HJB3); assay: Inhibition of jack bean alpha-mannosidase using p-nitrophenyl glycoside as substrate assessed as release of p-nitrophenol at 1000 uM by spectrometric analysis relative to control
T1 sequence (whole entry): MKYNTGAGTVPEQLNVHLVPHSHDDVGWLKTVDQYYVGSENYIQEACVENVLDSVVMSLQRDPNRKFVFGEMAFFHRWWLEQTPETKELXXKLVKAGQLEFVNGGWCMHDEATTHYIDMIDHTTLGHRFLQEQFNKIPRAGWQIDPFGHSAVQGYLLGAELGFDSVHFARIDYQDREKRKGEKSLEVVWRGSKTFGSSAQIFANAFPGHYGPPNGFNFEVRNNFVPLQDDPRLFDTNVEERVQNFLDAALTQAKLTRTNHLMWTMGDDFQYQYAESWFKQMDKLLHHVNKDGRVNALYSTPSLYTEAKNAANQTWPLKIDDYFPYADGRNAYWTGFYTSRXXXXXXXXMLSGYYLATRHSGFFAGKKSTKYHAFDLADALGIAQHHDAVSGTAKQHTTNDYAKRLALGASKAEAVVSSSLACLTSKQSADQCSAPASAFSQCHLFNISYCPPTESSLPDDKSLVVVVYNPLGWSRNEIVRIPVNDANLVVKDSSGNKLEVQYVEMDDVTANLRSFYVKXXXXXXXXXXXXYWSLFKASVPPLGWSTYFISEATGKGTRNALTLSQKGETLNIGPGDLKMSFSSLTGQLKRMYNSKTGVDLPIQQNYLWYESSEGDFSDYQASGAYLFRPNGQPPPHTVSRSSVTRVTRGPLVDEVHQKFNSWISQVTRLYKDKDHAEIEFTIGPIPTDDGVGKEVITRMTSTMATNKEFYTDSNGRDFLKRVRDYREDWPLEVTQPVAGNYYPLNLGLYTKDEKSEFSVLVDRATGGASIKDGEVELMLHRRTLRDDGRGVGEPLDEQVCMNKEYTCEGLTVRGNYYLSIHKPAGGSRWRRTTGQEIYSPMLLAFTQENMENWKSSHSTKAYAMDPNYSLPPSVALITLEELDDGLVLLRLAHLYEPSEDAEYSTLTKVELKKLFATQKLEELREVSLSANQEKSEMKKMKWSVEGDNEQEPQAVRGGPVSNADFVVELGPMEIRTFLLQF

HepG2 = assay: Cytotoxicity activity against human HepG2 cells incubated for 48 hrs by CCK-8 assay; format: functional, cell-based; details: HepG2, 48 h
[3] = molecular target: Alpha glucosidase (Homo sapiens) (UniProt O43451+P10253+P14410+Q2M2H8); assay: Inhibition of human Alpha-glucosidase using p-nitrophenyl glycoside as substrate assessed as p-nitrophenol release at 1000 uM by spectrometric analysis relative to control; format: protein assay
Escherichia coli = assay: Inhibition of Escherichia coli beta-glucuronidase using p-nitrophenyl glycoside as substrate assessed as release of p-nitrophenol at 1000 uM by spectrometric analysis relative to control
Bos taurus [4] = species: Bos taurus; assay: Inhibition of bovine liver beta-glucuronidase using p-nitrophenyl glycoside as substrate assessed as release of p-nitrophenol at 1000 uM by spectrometric analysis relative to control
Bos taurus [5] = species: Bos taurus; assay: Inhibition of bovine liver beta-galactosidase using p-nitrophenyl glycoside as substrate assessed as release of p-nitrophenol at 1000 uM by spectrometric analysis relative to control
Penicillium decumbens = assay: Inhibition of Penicillium decumbens alpha-L-rhamnosidase using p-nitrophenyl glycoside as substrate assessed as release of p-nitrophenol at 1000 uM by spectrometric analysis relative to control
Prunus dulcis = assay: Inhibition of almond Beta-glucosidase using p-nitrophenyl glycoside as substrate assessed as release of p-nitrophenol at 1000 uM by spectrometric analysis relative to control
Rattus norvegicus = species: Rattus norvegicus; assay: Inhibition of rat intestinal Alpha-glucosidase using p-nitrophenyl glycoside as substrate assessed as p-nitrophenol release at 1000 uM by spectrometric analysis relative to control
[6] = molecular target: Alpha-galactosidase (Coffea arabica) (UniProt Q42656); assay: Inhibition of coffee bean alpha-galactosidase using p-nitrophenyl glycoside as substrate assessed as release of p-nitrophenol at 1000 uM by spectrometric analysis relative to control
Sequence of Alpha-galactosidase (Coffea arabica) (Q42656 16-378 limits assumed): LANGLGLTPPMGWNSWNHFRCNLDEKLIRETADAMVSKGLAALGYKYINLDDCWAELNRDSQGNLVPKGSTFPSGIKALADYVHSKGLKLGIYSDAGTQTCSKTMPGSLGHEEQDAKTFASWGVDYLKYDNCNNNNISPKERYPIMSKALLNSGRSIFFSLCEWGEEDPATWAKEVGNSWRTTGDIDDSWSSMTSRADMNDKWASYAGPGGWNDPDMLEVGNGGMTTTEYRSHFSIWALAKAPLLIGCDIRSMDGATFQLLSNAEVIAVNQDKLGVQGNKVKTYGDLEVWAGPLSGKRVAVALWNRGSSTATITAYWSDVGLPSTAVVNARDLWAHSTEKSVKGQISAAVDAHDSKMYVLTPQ

Homo sapiens = species: Homo sapiens; assay: Inhibition of human lysosome beta-glucosidase using p-nitrophenyl glycoside as substrate assessed as release of p-nitrophenol at 1000 uM by spectrometric analysis relative to control
CAKI-1 = assay: Cytotoxicity activity against human CAKI-1 cells incubated for 48 hrs by CCK-8 assay; format: functional, cell-based; details: CAKI-1, 48 h
Helix pomatia = assay: Inhibition of snail beta-mannosidase using p-nitrophenyl glycoside as substrate assessed as release of p-nitrophenol at 1000 uM by spectrometric analysis relative to control
Sus scrofa = species: Sus scrofa; assay: Inhibition of porcine kidney Alpha alpha-trehalase using p-nitrophenyl glycoside as substrate assessed as release of p-nitrophenol at 1000 uM by spectrometric analysis relative to control
Bos taurus [7] = species: Bos taurus; assay: Inhibition of bovine liver beta-glucosidase using p-nitrophenyl glycoside as substrate assessed as release of p-nitrophenol at 1000 uM by spectrometric analysis relative to control
Oryza sativa = assay: Inhibition of rice Alpha-glucosidase using p-nitrophenyl glycoside as substrate assessed as p-nitrophenol release at 1000 uM by spectrometric analysis relative to control
[8] = Inhibition of Penicillium decumbens alpha-L-rhamnosidase using p-nitrophenyl glycoside as substrate assessed as release of p-nitrophenol by spectrometric analysis
Alpha-mannosidase = molecular target: T2, Alpha-mannosidase (Canavalia ensiformis, UniProt C0HJB3); assay: Inhibition of jack bean alpha-mannosidase using p-nitrophenyl glycoside as substrate assessed as release of p-nitrophenol by spectrometric analysis
T2 sequence (C0HJB3 whole entry): T1 sequence (whole entry)

[9] = Inhibition of human liver Alpha-mannosidase

SMILES	inhibition (Aspergillus niger) [%]	inhibition [1] [%]	inhibition [2] [%]	inhibition [3] [%]	inhibition (Escherichia coli) [%]	inhibition (Bos taurus [4]) [%]	inhibition (Bos taurus [5]) [%]	inhibition (Penicillium decumbens) [%]	inhibition (Prunus dulcis) [%]	inhibition (Rattus norvegicus) [%]	inhibition [6] [%]	inhibition (Homo sapiens) [%]	inhibition (Helix pomatia) [%]	inhibition (Sus scrofa) [%]	inhibition (Bos taurus [7]) [%]	inhibition (Oryza sativa) [%]	IC50 (Alpha-mannosidase) [µM]	also measured
O[C@H]1[C@H]2[C@H](O)C[C@@H](F)CN2C[C@H]1O	11.8	2.2	0.5	5.6	0	2.6	0.8	8.3	0.5	22.8	0	0.4	0	2.5	5.1	–	–	IC50 (786-0): > 200 µM; IC50 (HepG2): > 200 µM; IC50 (CAKI-1): > 200 µM
O[C@@H]1[C@@H]2[C@@H](O)CCCN2C[C@@H]1O	17.7	0	7.2	3.4	11.3	0	48.3	0.26	7.4	26.5	0	4.8	0	–	33	0	–	IC50 [8]: 0.13 µM
CC(C)(C)c1ccc(CC[C@H]2CC[C@@H](O)[C@@H]3[C@H](O)[C@H](O)CN23)cc1	–	–	–	–	–	–	–	–	–	–	–	–	–	–	–	–	0.42	–
CC(C)(C)c1ccc(C(=O)C[C@@H]2CC[C@@H](O)[C@@H]3[C@H](O)[C@H](O)CN23)cc1	–	–	–	–	–	–	–	–	–	–	–	–	–	–	–	–	2.54	–
O[C@H]1[C@H]2[C@@H](O)CCCN2C[C@H]1O	1.8	0	51	0	0	5.7	0.8	47.5	3.2	0	0	0	0	0	4.5	0	–	IC50 [9]: 51 µM
O=C(C[C@H]1CC[C@@H](O)[C@@H]2[C@H](O)[C@H](O)CN12)c1ccccc1	–	–	–	–	–	–	–	–	–	–	–	–	–	–	–	–	0.51	–
O[C@H]1[C@H]2[C@H](O)CCCN2C[C@H]1O [TRIDOLGOSIR]	8.6	0	0.28	0	0	8.8	5.8	34.2	2.1	13.1	0	0	0	1	11.5	31.2	–	IC50 [9]: 0.28 µM
O[C@H]1[C@H]2[C@H](O)CC(F)(F)CN2C[C@H]1O	2.7	0	0.44	8.9	0	16.7	13.3	20.4	3.2	11.6	0.6	0	40	0	23.7	–	–	IC50 (786-0): > 200 µM; IC50 (HepG2): > 200 µM; IC50 (CAKI-1): > 200 µM
O[C@H]1[C@H]2[C@@H](O)C[C@@H](F)CN2C[C@H]1O	1.4	6.2	14.4	5.3	4.1	15.1	29.2	118	5.3	10.9	0	17.3	3.3	4.6	19.9	14	–	–
O[C@H]1[C@H]2[C@@H](O)CC(F)(F)CN2C[C@H]1O	1.8	1.1	12.2	0.4	0	11.4	0	144	3.7	25	0	0	0.8	1.5	5.8	2.5	–	–
C[C@@H]1C[C@H](O)[C@H]2[C@@H](O)[C@@H](O)CN2C1	–	–	–	–	–	–	–	–	–	–	–	–	–	–	–	–	–	IC50 [8]: 0.034 µM
O[C@H]1[C@H]2[C@H](O)C[C@H](CCOCc3ccccc3)CN2C[C@H]1O	–	–	–	–	–	–	–	–	–	–	–	–	–	–	–	–	230	–
CC(C)(C)c1ccc(CC[C@@H]2CC[C@@H](O)[C@@H]3[C@H](O)[C@H](O)CN23)cc1	–	–	–	–	–	–	–	–	–	–	–	–	–	–	–	–	3.7	–
O[C@@H]1[C@@H]2[C@@H](O)[C@H](O)[C@H](O)CN2C[C@@H]1O	–	–	–	–	–	–	–	–	–	–	–	–	–	–	–	–	–	IC50 [8]: 530 µM
C[C@@H]1[C@H](O)[C@H]2[C@@H](O)[C@@H](O)CN2C[C@@]1(C)O	–	–	–	–	–	–	–	–	–	–	–	–	–	–	–	–	–	IC50 [8]: 21.3 µM
